Read-outs that look alike come from different tables or passages of the source.
Target: T1, P70S6K (T412E mutant, Millipore) (Homo sapiens, UniProt P23443, T412E)
T1 construct: purchased Millipore
Assay: p70S6K enzyme assay
Assay type: biochemical
Details: 3 nM P70S6K, 24 μM ATP
Description: P70S6K inhibitor compounds are diluted and plated in 96 well plates. A reaction mixture including the following components is then added to the compound plate to initiate the enzyme reaction; P70S6K (3 nM, T412E mutant, Millipore) is mixed with 24 μM ATP in an assay buffer containing 100 mM Hepes (pH 7.5), 5 mM MgCl2, 1 mM DTT, 0.015% Brij and 1 μM of the substrate peptide FITC-AHA-AKRRRLSSLRA-OH (derived from the S6 ribosomal protein sequence, FITC=fluorescein isothiocyanate, AHA=6-aminohexanoic acid). The reaction is incubated for 90 min at 25° C., before the addition of 10 mM EDTA to stop the reaction. The proportion of substrate and product (phosphorylated) peptide is analysed on a Caliper Life Sciences Lab Chip 3000, using a pressure of −1.4 psi, and upstream and downstream voltages of −3000 and −700 respectively. Product peaks are resolved before substrate peaks on the resulting chromatograms.

[1] = class symbol, read-out: IC50 (p70S6K)
[2] = Table 1, 90 min at 25° C., read-out: p70S6K inhibition (IC50)

T1 sequence (P23443 whole entry T412E): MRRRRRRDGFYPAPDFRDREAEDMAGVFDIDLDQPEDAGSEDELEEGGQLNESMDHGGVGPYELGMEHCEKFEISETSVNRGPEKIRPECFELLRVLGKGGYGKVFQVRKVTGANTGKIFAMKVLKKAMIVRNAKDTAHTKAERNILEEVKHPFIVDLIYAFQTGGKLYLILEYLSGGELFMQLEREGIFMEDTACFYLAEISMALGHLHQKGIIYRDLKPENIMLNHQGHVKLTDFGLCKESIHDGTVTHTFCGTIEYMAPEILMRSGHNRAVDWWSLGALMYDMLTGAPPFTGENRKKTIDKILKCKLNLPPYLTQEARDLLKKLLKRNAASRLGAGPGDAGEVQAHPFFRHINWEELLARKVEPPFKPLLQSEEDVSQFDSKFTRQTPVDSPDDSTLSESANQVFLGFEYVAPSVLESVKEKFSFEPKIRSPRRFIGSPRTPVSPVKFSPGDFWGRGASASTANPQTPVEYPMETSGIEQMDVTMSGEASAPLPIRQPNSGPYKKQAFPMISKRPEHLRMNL

Compound | IC50 [1] | IC50 [2]
COc1cccc(CCNC(=O)c2sccc2Nc2ccnc3[nH]ccc23)c1 [Example 26, 3-(1H-Pyrrolo[2,3-b]pyridin-4-ylamino)-thiophene-2-carboxylic acid [2-(3-methoxy-phenyl)-ethyl]-amide] | < 100 nM | –
O=C(N[C@H](CO)Cc1ccccc1)c1ccsc1Nc1ccnc2[nH]ccc12 [Example 118, 2-(1H-Pyrrolo[2,3-b]pyridin-4-ylamino)-thiophene-3-carboxylic acid ((S)-1-hydroxymethyl-2-phenyl-ethyl)-amide] | < 100 nM | –
O=C(NC1CCCNC1)c1sccc1Nc1ncnc2[nH]ccc12 (stereo not shown) [Example 186, 3-(7H-Pyrrolo[2,3-d]pyrimidin-4-ylamino)-thiophene-2-carboxylic acid piperidin-3-ylamide] | < 100 nM | –
N#CC(NC(=O)c1ccsc1Nc1ccnc2[nH]ccc12)c1ccccc1 (stereo not shown) [Example 116, 2-(1H-Pyrrolo[2,3-b]pyridin-4-ylamino)-thiophene-3-carboxylic acid (cyano-phenyl-methyl)-amide] | < 100 nM | –
O=C(NCCc1c[nH]cn1)c1sccc1Nc1ccnc2[nH]ccc12 [Example 15, 3-(1H-Pyrrolo[2,3-b]pyridin-4-ylamino)-thiophene-2-carboxylic acid [2-(1H-imidazol-4-yl)-ethyl]-amide] | 100 to 1000 nM | –
O=C(NCC(O)c1ccccc1)c1sccc1Nc1ccnc2[nH]ccc12 (stereo not shown) [Example 99, 3-(1H-Pyrrolo[2,3-b]pyridin-4-ylamino)-thiophene-2-carboxylic acid (2-hydroxy-2-phenyl-ethyl)-amide] | < 100 nM | –
O=C(NCC1CCCO1)c1sccc1Nc1ccnc2[nH]ccc12 (stereo not shown) [Example 3, 3-(1H-Pyrrolo[2,3-b]pyridin-4-ylamino)-thiophene-2-carboxylic acid (tetrahydro-furan-2-ylmethyl)-amide] | 100 to 1000 nM | –
O=C(NC(CO)C(=O)NCc1ccc(Cl)c(C(F)(F)F)c1)c1sccc1Nc1ccnc2[nH]ccc12 (stereo not shown) [Example 89, 3-(1H-Pyrrolo[2,3-b]pyridin-4-ylamino)-thiophene-2-carboxylic acid [1-(4-chloro-3-trifluoromethyl-benzylcarbamoyl)-2-hydroxy-ethyl]-amide] | 100 to 1000 nM | –
COc1ccc(C(CN)NC(=O)c2ccsc2Nc2ccnc3[nH]ccc23)cc1OC (stereo not shown) [Example 110, 2-(1H-Pyrrolo[2,3-b]pyridin-4-ylamino)-thiophene-3-carboxylic acid [2-amino-1-(3,4-dimethoxy-phenyl)-ethyl]-amide] | < 100 nM | –
O=C(NCCNCc1ccccc1OC(F)(F)F)c1sccc1Nc1ccnc2[nH]ccc12 [Example 48, 3-(1H-Pyrrolo[2,3-b]pyridin-4-ylamino)-thiophene-2-carboxylic acid [2-(2-trifluoromethoxy-benzylamino)-ethyl]amide] | < 100 nM | –
CC(C)(C)OC(=O)N1CCCC(NC(=O)c2ccsc2Nc2ccnc3[nH]ccc23)C1 (stereo not shown) [Example 104, 3-{[2-(1H-Pyrrolo[2,3-b]pyridin-4-ylamino)-thiophene-3-carbonyl]-amino}-piperidine-1-carboxylic acid tert-butyl ester] | 100 to 1000 nM | –
O=C(NCCNCc1ccc(Cl)c(C(F)(F)F)c1)c1sccc1Nc1ccnc2[nH]ccc12 [Example 90, 3-(1H-Pyrrolo[2,3-b]pyridin-4-ylamino)-thiophene-2-carboxylic acid [2-(4-chloro-3-trifluoromethyl-benzylamino)-ethyl]-amide] | < 100 nM | –
CNCC(NC(=O)c1sccc1Nc1ccnc2[nH]ccc12)c1ccccc1 (stereo not shown) [Example 169, 3-(1H-Pyrrolo[2,3-b]pyridin-4-ylamino)-thiophene-2-carboxylic acid (2-methylamino-1-phenyl-ethyl)-amide] | < 100 nM | –
O=C(NC1CCNC1)c1sccc1Nc1ccnc2[nH]ccc12 (stereo not shown) [Example 6, 3-(1H-Pyrrolo[2,3-b]pyridin-4-ylamino)-thiophene-2-carboxylic acid pyrrolidin-3-ylamide] | < 100 nM | –

The next lines start with the values.

IC50 [1] | IC50 [2] | Compound
< 100 nM | – | O=C(NCCNCc1ccc(F)c(Cl)c1)c1sccc1Nc1ccnc2[nH]ccc12 [Example 63, 3-(1H-Pyrrolo[2,3-b]pyridin-4-ylamino)-thiophene-2-carboxylic acid [2-(3-chloro-4-fluoro-benzylamino)-ethyl]-amide]
< 100 nM | – | Cc1ccccc1CCNC(=O)c1sccc1Nc1ccnc2[nH]ccc12 [Example 25, 3-(1H-Pyrrolo[2,3-b]pyridin-4-ylamino)-thiophene-2-carboxylic acid (2-o-tolyl-ethyl)-amide]
100 to 1000 nM | – | O=C(NCCSCc1ccccc1)c1sccc1Nc1ccnc2[nH]ccc12 [Example 66, 3-(1H-Pyrrolo[2,3-b]pyridin-4-ylamino)-thiophene-2-carboxylic acid (2-benzylsulfanyl-ethyl)-amide]
< 100 nM | – | NCC(NC(=O)c1sccc1Nc1ccnc2[nH]ccc12)c1cccc(F)c1 (stereo not shown) [Example 106, 3-(1H-Pyrrolo[2,3-b]pyridin-4-ylamino)-thiophene-2-carboxylic acid [2-amino-1-(3-fluoro-phenyl)-ethyl]-amide]
100 to 1000 nM | – | O=C(NCCNCc1ccncc1)c1sccc1Nc1ccnc2[nH]ccc12 [Example 74, 3-(1H-Pyrrolo[2,3-b]pyridin-4-ylamino)-thiophene-2-carboxylic acid {2-[(pyridin-4-ylmethyl)-amino]-ethyl}-amide]
< 100 nM | – | CCNc1cc(C(=O)Nc2cccc(CNC(=O)c3sccc3Nc3ccnc4[nH]ccc34)c2)ccn1 [Example 165, 2-Ethylamino-N-[3-({[3-(1H-pyrrolo[2,3-b]pyridin-4-ylamino)-thiophene-2-carbonyl]-amino}-methyl)-phenyl]-isonicotinamide]
< 100 nM | – | O=C(NCCNCc1ccc(C(F)(F)F)cc1)c1sccc1Nc1ccnc2[nH]ccc12 [Example 52, 3-(1H-Pyrrolo[2,3-b]pyridin-4-ylamino)-thiophene-2-carboxylic acid [2-(4-trifluoromethyl-benzylamino)-ethyl]-amide]
– | < 100 nM | O=C(NCCNCc1ccccc1)c1sccc1Nc1ncnc2[nH]ccc12 [Example 148, 3-(7H-Pyrrolo[2,3-d]pyrimidin-4-ylamino)-thiophene-2-carboxylic acid [2-2-benzylamino-ethyl)-amide]
1000 to 10000 nM | – | NC1CCN(C(=O)c2sccc2Nc2ccnc3[nH]ccc23)CC1 [Example 64, (4-Amino-piperidin-1-yl)-[3-(1H-pyrrolo[2,3-b]pyridin-4-ylamino)-thiophen-2-yl]-methanone]
< 100 nM | – | NCC(NC(=O)c1ccsc1Nc1ccnc2[nH]ccc12)c1ccc(Cl)c(Cl)c1 (stereo not shown) [Example 128, 2-(1H-Pyrrolo[2,3-b]pyridin-4-ylamino)-thiophene-3-carboxylic acid [2-amino-1-(3,4-dichloro-phenyl)-ethyl]-amide]
100 to 1000 nM | – | NCCCNC(=O)c1sccc1Nc1ccnc2[nH]ccc12 [Example 67, 3-(1H-Pyrrolo[2,3-b]pyridin-4-ylamino)-thiophene-2-carboxylic acid (3-amino-propyl)-amide]
– | < 100 nM | O=C(NCc1cccc(Cl)c1)c1occc1Nc1ncnc2[nH]ccc12 [Example 141, 3-(7H-Pyrrolo[2,3-d]pyrimidin-4-ylamino)-furan-2-carboxylic acid 3-chloro-benzylamide]
< 100 nM | – | O=C(NCc1cccc(Cl)c1)c1sccc1Nc1ccnc2[nH]ccc12 [Example 30, 3-(1H-Pyrrolo[2,3-b]pyridin-4-ylamino)-thiophene-2-carboxylic acid 3-chloro-benzylamide]
100 to 1000 nM | – | CC(CO)NC(=O)c1sccc1Nc1ccnc2[nH]ccc12 (stereo not shown) [Example 10, 3-(1H-Pyrrolo[2,3-b]pyridin-4-ylamino)-thiophene-2-carboxylic acid (2-hydroxy-1-methyl-ethyl)-amide]
100 to 1000 nM | – | O=C(NCCOc1ccccc1)c1sccc1Nc1ccnc2[nH]ccc12 [Example 12, 3-(1H-Pyrrolo[2,3-b]pyridin-4-ylamino)-thiophene-2-carboxylic acid (2-phenoxy-ethyl)-amide]
100 to 1000 nM | – | O=C(CNC(=O)c1sccc1Nc1ccnc2[nH]ccc12)NCc1ccccc1 [Example 73, 3-(1H-Pyrrolo[2,3-b]pyridin-4-ylamino)-thiophene-2-carboxylic acid (benzylcarbamoyl-methyl)-amide]
1000 to 10000 nM | – | O=C(c1sccc1Nc1ccnc2[nH]ccc12)N1CCC(NCc2ccccc2)CC1 [Example 65, (4-Benzylamino-piperidin-1-yl)-[3-(1H-pyrrolo[2,3-b]pyridin-4-ylamino)-thiophen-2-yl]-methanone]
< 100 nM | – | O=C(N[C@H](CN1C(=O)c2ccccc2C1=O)c1ccccc1)c1ccsc1Nc1ccnc2[nH]ccc12 [Example 134, (S)-[3-(1H-Pyrrolo[2,3-b]pyridin-4-ylamino)-thiophene-2-carboxylic acid[2-(1,3-dioxo-1,3-dihydro-isoindol-2-yl)-1-phenyl-ethyl]-amide]]
< 100 nM | – | NCC(NC(=O)c1ccsc1Nc1ccnc2[nH]ccc12)c1cccc(Cl)c1 (stereo not shown) [Example 130, 2-(1H-Pyrrolo[2,3-b]pyridin-4-ylamino)-thiophene-3-carboxylic acid [2-amino-1-(3-chloro-phenyl)-ethyl]-amide]
100 to 1000 nM | – | CC(C)(C)OC(=O)N1CCC(NC(=O)c2ccsc2Nc2ccnc3[nH]ccc23)C1 (stereo not shown) [Example 102, 3-{[2-(1H-Pyrrolo[2,3-b]pyridin-4-ylamino)-thiophene-3-carbonyl]-amino}-pyrrolidine-1-carboxylic acid tert-butyl ester]

From patent publication US9023847B2, “Azaheterocyclic compounds” (Merck Patent GmbH, priority 2009, dated 2015)
